According to patent US11376261B2, “Methods for diagnosing and managing treatment of atopic dermatitis” (University of Cincinnati, priority 2017, dated 2022):
Like-named read-outs stand apart in the source and are kept apart here.

Experiments:
[1] = system: AD skin lesions; assay: Pre- vs post-treatment cutaneous gene expression, betamethasone and pimecrolimus (NCBI GEO GSE32473), overlap with 89ADGES; type: in vivo, human; conditions: application to AD skin lesions, Fold Change ≥2.0, p-value<0.05
Protocol: (§1) Pre- and post-treatment gene expression datasets have been retrieved from publicly accessible database NCBI GEO, including datasets related to three widely-used treatments for AD: betamethasone and pimecrolimus (NCBI GEO data GSE32473), and dupilumab 300 mg (NCBI GEO data GSE59294).
Members of 89ADGES that are differentially regulated due to the application of betamethasone to AD skin lesions. […] CCL18, MSMB, SERPINB3 and SERPINB4 genes are associated with multiple array IDs.
BTC, CCL18, MSMB, IL-37, SERPINB3 and SERPINB4 genes are associated with multiple array IDs.
(§2) FIG. 6 is a table showing expression of members of the ECZEMA55 gene panel compared to normal skin. Expression changes are due to different treatment options. Betamethasone, pimecrolimus, and dupilumab are shown. Note direction and magnitude of treatment-related expression change for each gene. Treatment inducing change in a direction opposite to that occurring in ECZEMA55 can drive treatment-associated health benefits.

[2] = system: atopic dermatitis; conditions: Dupilumab 300 mg, GSE59294, cited from earlier work; for EASI-POST: post-treatment; for EASI-PRE: pre-treatment
[3] = system: AD skin lesions; assay: Pre- vs post-treatment cutaneous gene expression, dupilumab 300 mg (NCBI GEO GSE59294), overlap with 89ADGES; type: in vivo, human; conditions: administration of dupilumab 300 mg, Fold Change ≥2.0, p-value<0.05
Protocol: as §1
CCL18, IL-37, SERPINB3 and SERPINB4 genes are associated with multiple array IDs.
Samples in Dupilumab dataset include GSE59294.
as §2

[4] = system: ECZEMA55 genes; assay: Quantitative RT-PCR of ECZEMA55 genes in pre- and post-treatment skin biopsy of an AD patient (Example 7); type: in vivo, human; conditions: one AD patient; 600 mg then two 300 mg s.c. injections over 4 weeks
Protocol: An AD patient comes to the clinic with severe itch and lesions on at least 45% of their body surface. Symptoms indicate a possible diagnosis of atopic dermatitis. They are not sufficiently controlled by topical treatments like pimecrolimus and betamethasone. The patient is advised to begin dupilumab treatment. Duplimumab is administered by subcutaneous injection at recommended dosing for adult patients, which is initially at a dose of 600 mg, followed by 300 mg administered every two weeks. The patient is given one 600 mg injection followed by two 300 mg injections over the course of 4 weeks. Pre- and post-treatment samples are collected and stored in RNA later solution (Invitrogen) at −80° C.
Pre- and post-treatment skin biopsy is performed using a minimally invasive disposable punch. The skin biopsy site is swabbed with isopropyl alcohol (70%) and anesthetized with local anesthetic (1 mL of 1% lidocaine+adrenaline). Using a punch biopsy needle, a 4 mm^2 full thickness skin biopsy from the lesion is obtained and stored in RNA later solution and sent to the diagnostic lab to perform RT-PCR assay.
RNA is isolated from the tissue and subjected to quantitative RT-PCR to compare the levels of expression of the ECZEMA55 genes of the patient's tissue to normal healthy skin. […] The treatment is assessed as effective and the patient is advised to receive further dupilumab treatment doses.

[5] = system: atopic dermatitis; assay: Symptom score of paired patient samples (pEASI reduction in GSE32473; pre-/post-treatment EASI in GSE59294); type: in vivo, human
Protocol: Gene expression data related to ECZEMA55 genes were extracted for pre- and post-treatment samples. Values were expressed as post-treatment/pre-treatment ratio. Variable selection or feature selection was performed by clustering of 55 genes into smaller number of coherent clusters and identifying the most representative gene per cluster. Representative genes were used to build a regression model which can be used to efficiently model the data. Outcome variable was defined either as the reduction in symptom score (available as per subject pEASI reduction; pEASI=partial EASI reduction in dataset GSE32473) or as the post-treatment symptom score (taking pre-treatment symptom score as an independent covariate and per subject pre-treatment symptom scores is available, as in the dataset GSE59294). A regression model was generated and regression trees were constructed. Classification/prediction and efficiency of the model were determined. Samples in Dupilumab dataset include GSE59294. […] We therefore added pre-treatment symptom score for analysis and for generating regression models

| Compound | Number of 89ADGES genes differentially regulated in treated biopsy samples compared to baseline pre-treatment condition [1] | EASI-POST ([2]; Patient 1) | EASI-PRE ([2]; Patient 1) | EASI-POST ([2]; Patient 2) | EASI-PRE ([2]; Patient 2) | EASI-POST ([2]; Patient 3) | EASI-PRE ([2]; Patient 3) | Number of 89ADGES genes differentially regulated in treated biopsy samples compared to baseline pre-treatment condition [3] | Direction of ECZEMA55 gene expression change after treatment [4] | Number of ECZEMA55 genes with expression changed compared to pre-treatment [4] | EASI-post/pre ([5]; Patient 1, Dupilumab 300 mg) | EASI-post/pre ([5]; Patient 2, Dupilumab 300 mg) | EASI-post/pre ([5]; Patient 3, Dupilumab 300 mg) |
| --- | --- | --- | --- | --- | --- | --- | --- | --- | --- | --- | --- | --- | --- |
| C[C@H]1C[C@H]2[C@@H]3CCC4=CC(=O)C=C[C@]4(C)[C@@]3(F)[C@@H](O)C[C@]2(C)[C@@]1(O)C(=O)CO [betamethasone] | 45 genes | – | – | – | – | – | – | – | – | – | – | – | – |
| CC[C@@H]1/C=C(\C)C[C@H](C)C[C@H](OC)[C@H]2O[C@@](O)(C(=O)C(=O)N3CCCC[C@H]3C(=O)O[C@H](/C(C)=C/[C@@H]3CC[C@H](Cl)[C@H](OC)C3)[C@H](C)[C@@H](O)CC1=O)[C@H](C)C[C@@H]2OC [pimecrolimus] | 41 genes | – | – | – | – | – | – | – | – | – | – | – | – |
| dupilumab: fully humanized monoclonal IgG4 antibody that inhibits IL-4 and IL-13 signaling by binding the IL-4Rα subunit | – | 9.105 | 34.6 | 3.835 | 31.45 | 1.526 | 34.65 | 42 genes | opposite to gene expression in AD disease state compared to healthy skin | about 30 genes | 0.263 | 0.122 | 0.044 |
